Reference: publication PMC7714071, “Interaction of amyloid beta with humanin and acetylcholinesterase is modulated by ATP” (FEBS Open Bio, 2020)

What was measured:
[1] = ELISA, binding of biotinylated-Aβ to immobilised HS; parameters: species or system bovine; settings: HS 100 nM on wells, increasing biotinylated-Aβ; single binding site model; mean ± SD of three independent experiments in triplicate; Fig. 2A
Description: ELISAs were carried out as we previously reported. Nunc MaxiSorp 96‐well flat bottom plate (Thermo Fisher) wells were coated with samples as indicated. The plates were incubated overnight at 4 °C on a shaker to allow binding of the samples to the plate wells. After the incubation, the wells were washed 4× with TBST, filled with 400 µL blocking buffer (110 mM KCl, 5 mM NaHCO3, 5 mM MgCl2, 1 mM EGTA, 0.1 mM CaCl2, 20 mM HEPES, 1% BSA, pH 7.4), and incubated with shaking overnight at 4 °C. The wells were then washed 4× with TBST, and 100 µL of sample at the desired concentration was added to each well and incubated with shaking overnight at 4 °C. TBST was then used to wash the wells 4× before proceeding in one of two ways: (a) biotinylated samples were analyzed by adding 100 µL streptavidin–HRP conjugate in TBST (1 : 2500 dilution) to the samples followed by incubation for 3 h at RT on a shaker, or (b) samples without biotin were analyzed by adding 100 µL TBST containing the primary antibody as per the manufacturer's recommendation, incubating for 3 h at RT on a shaker, followed by washing the wells 4× with TBST. […] The reaction was stopped with 100 µL 2 M H2SO4 after incubating at RT for 0.5–15 min, resulting in a yellow color change, measured by absorbance at 450 nm. […] Statistical analysis was determined by the […] […] Data were expressed as the mean ± SD. […]

[2] = tested on: Aβ42; settings: in brains of AD patients; cited from earlier work
From the text: Almost all types of cells produce amyloid beta (Aβ), a peptide well recognized for its role in the development and progression of different stages of Alzheimer's disease (AD). The Aβ peptide is ~ 4 kDa and derived from the sequential processing of the higher molecular weight amyloid precursor protein by two membrane‐bound endoproteases, β‐ and γ‐secretase. Different C‐terminal Aβ heterogeneity results from processing by γ‐secretase, where Aβ40 represents the most abundant isoform (~ 90%) as compared to Aβ42 (~ 10%). Self‐assembled Aβ40/42 peptides into amyloid fib ... || Amino acid residues involved in direct interactions between HN and Aβ40 were identified previously by molecular modeling. The specific epitopes at the binding interface between HN and Aβ40 were identified, by proteolytic epitope excision and extraction in addition to affinity–mass spectrometric data analysis, to be HN (5–15) and Aβ (17–28). […] Inhibiting the 17–28 region of Aβ reduced aggregation of the neurotoxic amyloid fibrils and related cytotoxicity in SH‐SY5Y, a human neuroblastoma cell ... || Acetylcholinesterase (AChE) is an enzyme known for its role in terminating acetylcholine‐mediated neurotransmission at the synaptic cleft. The majority of the cortical AChE in the Alzheimer's brain is mainly associated with the amyloid core of senile plaques. […]

[3] = tested on: Aβ; settings: cited from earlier work
[4] = tested on: Aβ in A549 cell-conditioned media; assay: ELISA, oligomer versus total Aβ in A549 cell-conditioned media; type: cell-based, human; settings: non-depleted A549 media; Fig. 8A
Description: (§1) Aβ ELISAs were carried out according to previous protocols for determining the oligomeric and monomeric concentrations of Aβ and as we recently reported. Briefly, total Aβ (monomers + oligomers) was measured by two‐site binding ELISAs using the capture 6E10 monoclonal antibody and 4G8‐conjugated biotin as the detection antibody, which recognizes a distinct epitope, then quantitated using streptavidin‐HRP.
(§2) Using the same samples, oligomerized Aβ was measured by a single‐site ELISA in which antibodies targeting the same primary sequence epitope were used for both capture (4G8) and detection (4G8‐biotin). Only oligomers are detected with this approach since the 4G8‐biotin antibody cannot bind to the captured monomer because the epitope is blocked by the 4G8 capture antibody. Therefore, only oligomeric or multimeric Aβ containing additional exposed 4G8 epitopes, not engaged by the capture antibody, are reported by the streptavidin–HRP. The amount of the monomer was then estimated as the difference between the concentration of total Aβ and the concentration of the oligomer.
(§3) Conditioned media were immunodepleted (ID) according to the methods previously described and our recently published report. Briefly, specific antibodies were bound to ELISA wells overnight (1 : 1000 dilution). The wells were then blocked and washed, then 300 μL of the conditioned medium (0.5 μg·μL^−1) treated as indicated, 72 h postserum starvation, was incubated with the antibodies bound to ELISA wells for 24 h. The ID media were then carefully removed and analyzed for the presence of the target protein or peptide by ELISA. The same amount of protein (3 µL of 600 µg·mL^−1 total protein) of each sample was analyzed in the experiments. Significant depletion (95–100%) was observed upon using each of the antibodies employed in this study.
(§4) Both epitopes recognized by the 6E10 and 4G8 antibodies have been previously shown to be exposed in Aβ aggregates. […] To determine the effect of ID of AChE or HN on this ratio in the absence or presence of added ATP, 0.2 × 10^5 cells per well were seeded in 96‐well plates in 10% FBS‐supplemented media. The next day, the cells were incubated in serum‐free medium for 72 h, then ID of AChE or HN as described in Materials and methods. The antibodies 6E10 or 4G8 were bound (1 : 1000 dilution) to ELISA wells (Fig. 8). The wells were blocked, and then incubated with 300 μL of the ID medium (0.5 μg·μL^−1). Biotin‐4G8 was then added and the signal processed as described in Materials and methods section. Fold change relative to controls using anti‐6E10 or anti‐4G8 antibodies incubated with 300 μL of the medium not incubated with cells was calculated.
(§5) Cells (0.2 × 10^5) were grown in 10% FBS‐supplemented media for 24 h. The cells were then incubated in serum‐free medium for 72 h without or with ATP and the media collected and ID from either HN or AChE as described in Materials and methods section. The antibodies 6E10 or 4G8 were bound (1 : 1000 dilution) to ELISA wells. The wells were blocked, and then incubated with 300 μL of the control and ID medium (0.5 μg·μL^−1). Biotin‐4G8 was then added and the signal processed as described in Materials and methods section. Fold change relative to controls using anti‐6E10 and anti‐4G8 antibodies and 300 μL of the medium not incubated with cells was calculated. Data were processed using the […] 8.4.3 software. The graphs summarize the results expressed as means ± SD of three separate experiments, each performed in triplicate. […]

[5] = tested on: Aβ in H1299 cell-conditioned media; assay: ELISA, oligomer versus total Aβ in H1299 cell-conditioned media; type: cell-based, human; settings: non-depleted H1299 media; Fig. 8B
Description: as §1, §2, §3, §4, §5

[6] = tested on: human lung adenocarcinoma xenografts; settings: direct injection into xenografts; cited from earlier work
From the text: A rapidly growing body of evidence has recently steadily emerged showing that AD patients might have a reduced risk and some protection against certain cancers. […] Experimental evi ...

[7] = tested on: Aβ; settings: physiological intracellular concentrations, enhanced by magnesium; cited from earlier work
From the text: Soluble oligomers of proteins implicated in different diseases are primarily thought to be the main toxic form as opposed to the larger fibrillar assemblies. Aβ regions containing Tyr and Ser (H6DSGY10 and G25SNKG29) (Fig. 1) along with post‐translational modifications of these regions, have been implicated in misfolding, oligomerization, or fibril formation of Aβ [5, 10, 11, 16, 41]. […] In addition to ATP, the glycosaminoglycan, heparan sulfate (HS), has been previously reported to i ... || Access to the central domain of Aβ (residues 17–24) flanked by Lys‐16 and Lys‐28, known to be a critical structural element in fibrillar Aβ aggregates, might be regulated by binding of AChE and HN to their overlapping binding sites on Aβ. […] Moreover, we s ...

[8] = tested on: Aβ40; settings: versus Aβ42; cited from earlier work
From the text: Almost all types of cells produce amyloid beta (Aβ), a peptide well recognized for its role in the development and progression of different stages of Alzheimer's disease (AD). The Aβ peptide is ~ 4 kDa and derived from the sequential processing of the higher molecular weight amyloid precursor protein by two membrane‐bound endoproteases, β‐ and γ‐secretase. Different C‐terminal Aβ heterogeneity results from processing by γ‐secretase, where Aβ40 represents the most abundant isoform (~ 90%) as compared to Aβ42 (~ 10%). Self‐assembled Aβ40/42 peptides into amyloid fib ... || Humanin (HN) is a secreted 21‐ to 24‐amino acid mitochondrial‐derived peptide. Certain amino acid residues in HN have been identified to be involved in different functions, including binding to Aβ [55, 56]. […] HN was identified previously as a binding partner of Aβ, likely modulating its aggregation pathways and counteracting its deleterious effects. […] The specific epitopes at the binding interface between HN and Aβ40 were identified, by proteolytic epitope excision and extraction in addition to affinity–mass spectrometric data analysis, to be HN (5–15) and Aβ (17–28). […] Inhibiting the 17–28 region of Aβ reduced aggregation of the neurotoxic amyloid fibrils and related cytotoxicity in SH‐SY5Y, a human neuroblastoma cell ... || (+ 1 further places)

[9] = tested on: Aβ cytotoxicity; settings: cited from earlier work
From the text: Almost all types of cells produce amyloid beta (Aβ), a peptide well recognized for its role in the development and progression of different stages of Alzheimer's disease (AD). The Aβ peptide is ~ 4 kDa and derived from the sequential processing of the higher molecular weight amyloid precursor protein by two membrane‐bound endoproteases, β‐ and γ‐secretase. Different C‐terminal Aβ heterogeneity results from processing by γ‐secretase, where Aβ40 represents the most abundant isoform (~ 90%) as compared to Aβ42 (~ 10%). Self‐assembled Aβ40/42 peptides into amyloid fib ... || Soluble oligomers of proteins implicated in different diseases are primarily thought to be the main toxic form as opposed to the larger fibrillar assemblies. Aβ regions containing Tyr and Ser (H6DSGY10 and G25SNKG29) (Fig. 1) along with post‐translational modifications of these regions, have been implicated in misfolding, oligomerization, or fibril formation of Aβ [5, 10, 11, 16, 41]. […] Aβ proteins a ... || Acetylcholinesterase (AChE) is an enzyme known for its role in terminating acetylcholine‐mediated neurotransmission at the synaptic cleft. The majority of the cortical AChE in the Alzheimer's brain is mainly associated with the amyloid core of senile plaques. […]

Aβ42
binding affinity of Aβ for HS [1]: comparable affinities
aggregation kinetics of Aβ42 [2]: faster aggregation kinetics

biotinylated‐HN
binding of biotinylated-HN to Aβ versus HN [3]: indistinguishable

amyloid beta [Aβ]
oligomer relative to total Aβ [4]: ~ 63%
oligomer relative to total Aβ [5]: ~ 48%
tumor growth [6]: suppress tumor growth in mice

Nc1ncnc2c1ncn2[C@@H]1O[C@H](COP(=O)(O)OP(=O)(O)O)[C@@H](O)[C@H]1O [ADP]
effect on misfolding of Aβ [7]: reduced misfolding of Aβ

Aβ40
binding affinity of Aβ for HS [1]: comparable affinities
aggregation kinetics of Aβ40 [8]: lower aggregation kinetics
toxicity relative to Aβ42 [9]: lower toxicity
